The record followed here is paper PMC7400437, “Synthesis and Evaluation of the Antibacterial Activities of 13-Substituted Berberine Derivatives” (Antibiotics, 2020).

Structures are written as SMILES. Where two headings read alike, the source gives them in different places.

One data set deals with S. aureus. Kind of data set: MIC, antimicrobial activity assay. It is filed as cell-based, Staphylococcus aureus (ATCC 6538P). To be noted: Staphylococcus aureus.
A further data set relates to M. smegmatis. In words: microbe, parasite or virus in culture. The data set is classed as cell-based, Mycobacterium smegmatis (mc2155, ATCC 700084). To be noted: Mycolicibacterium smegmatis, 72 h, read-out: Minimal Inhibitory Concentration (MIC) M. smegmatis.
Another data set relates to B. cereus. Kind of data set: MIC, antimicrobial activity assay. It is filed as cell-based. The conditions noted are these: Bacillus cereus; Table 4, Gram-positive.
Data set [1] relates to B. subtilis (Nisin-resistant). In words: MIC, antimicrobial activity assay. It is filed as cell-based, nisin-resistant B. subtilis (DSMZ 347). To be noted: Bacillus subtilis, read-out: MIC B. subtilis (Nisin-resistant).
The next data set concerns C. perfringens. Kind of data set: microbe, parasite or virus in culture. The data set is classed as cell-based, Clostridium perfringens (ATCC 13124). The conditions noted are these: Clostridium perfringens, read-out: MIC C. perfringens.
Data set [2] deals with E. faecalis (Vancomycin-resistant). Kind of data set: MIC, antimicrobial activity assay. The data set is classed as cell-based, vancomycin-resistant Enterococcus faecalis (DSMZ 13591). To be noted: Enterococcus faecalis, read-out: MIC E. faecalis (Vancomycin-resistant).
The test system of another data set is L. lactis. Kind of data set: MIC, antimicrobial activity assay. It is filed as cell-based, Lactococcus lactis (DSM 20481). The conditions noted are these: Lactococcus lactis; Table 4, Gram-positive.
Data set [3] concerns S.aureus (Methicillin-resistant). Kind of data set: MIC, antimicrobial activity assay. The data set is classed as cell-based. The conditions noted are these: Staphylococcus aureus, read-out: MIC S.aureus (Methicillin-resistant).
In another data set the test system is A. baumannii. Kind of data set: MIC, antimicrobial activity assay. The data set is classed as cell-based, Acinetobacter baumannii (CIP 110431). The conditions noted are these: Acinetobacter baumannii; Table 4, Gram-negative.
For the next data set, the system named is C. farmer. In words: MIC, antimicrobial activity assay. The data set is classed as cell-based, Citrobacter farmeri (ATCC 51633). The conditions noted are these: Citrobacter farmeri; Table 4, Gram-negative.
A further data set deals with H. pylori. Kind of data set: MIC, antimicrobial activity assay. The data set is classed as cell-based, Helicobacter pylori (ATCC 43504). The conditions noted are these: Helicobacter pylori; Table 4, Gram-negative; microaerobic.
The next data set has as its system S. flexneri. In words: MIC, antimicrobial activity assay. It is filed as cell-based, Shigella flexneri (ATCC 12022). The conditions noted are these: Shigella flexneri; Table 4, Gram-negative.
The next data set relates to V. diabolicus. Kind of data set: MIC, antimicrobial activity assay. The data set is classed as cell-based. To be noted: Vibrio diabolicus; Table 4, Gram-negative.
Data set [4] deals with BEAS (human airway epithelial cells). In words: Cytotoxic assay on human cells (resazurin). It is filed as cell-based. To be noted: Epithelial cell, 48 h, means +/−SD, read-out: Inhibitory Concentration 50 (IC50) on cell viability, BEAS. Summed up:
(§1)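 Cells grown to confluence (48–72 h) were exposed for 48 h at 37 °C to 1:2 serial dilutions from 0 to 50 µM, with 0.5% DMSO as negative control. Resazurin 1:10 in PBS++ was added for 4 h, and fluorescence was read at 530/590 nm and normalized to DMSO wells. IC50 is the concentration giving 50% viability reduction.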
Background: The colour change of resazurin is a common sign of viable cells or microbes.

For data set [5], the system named is Caco2 (human intestinal epithelial cells). Kind of data set: Cytotoxic assay on human cells (resazurin). The data set is classed as cell-based. To be noted: for IC50: Homo sapiens, Caco-2, 48 h, read-out: Inhibitory Concentration 50 (IC50) on cell viability, Caco2; for therapeutic index Caco2: IC50 on Caco2 divided by MIC on S. aureus.
Data set [6] deals with HepG2 (human liver cells). Kind of data set: Cytotoxic assay on human cells (resazurin). It is filed as cell-based. To be noted: HepG2, 48 h, read-out: Inhibitory Concentration 50 (IC50) on cell viability, HEPG2. Summed up:
as §1

Data set [7] concerns bacterial DNA extracted from B. subtilis. In words: DNA fragmentation assay. The conditions noted are these: 6 h at 37 °C, 4-times their MIC.
In data set [8] the test system is DNA extracted from S. aureus. In words: DNA fragmentation assay. To be noted: data not shown.
Where [9] appears, read: Table 1 first screening, read-out: Minimal Inhibitory Concentration (MIC) S. aureus.
[10] abbreviates: Table 4, Gram-positive, read-out: MIC S. aureus.

As to `COc1ccc(C(=O)/C=C/c2ccc(Cc3c4[n+](cc5c(OC)c(OC)ccc35)CCc3cc5c(cc3-4)OCO5)cc2)c(O)c1` [Compound 25, (2E)-3-{4-[(Berberin-13-yl)methyl]phenyl}-1-(2-hydroxy-4-methoxyphenyl)prop-2-en-1-one], the MIC with S. aureus (setting [9]) stood at 3.12 µM; in the data set on S. aureus (setting [10]), 3.12 µM; with M. smegmatis, 25 µM; with B. cereus it was 6.25 µM; in [1], 6.25 µM; with C. perfringens it was 25 µM. Besides, the MIC was 12.5 µM in data set [2]; 1.5 to 3.12 µM in the data set on L. lactis; 6.25 µM in data set [3]; greater than 100 µM in the data set on A. baumannii; greater than 100 µM in the data set with C. farmer; 3.12 µM in the data set with H. pylori. The MIC against S. flexneri and in the data set with V. diabolicus was greater than 100 µM in each case. The IC50 in data set [4] is 8.87 ± 1.5 µM; in data set [5], 10.5 ± 0.7 µM; in [6] it was greater than 50 µM. Further, in data set [5], the “therapeutic index Caco2” value is on record as 3.37. For the same compound, the “DNA fragmentation, B. subtilis DNA” value in data set [7] is given as “did not caused DNA fragmentation”. The “DNA fragmentation, S. aureus DNA” value in data set [8] was “failed at causing the fragmentation of DNA”.

As to `COc1cc(C(=O)Cc2c3[n+](cc4c(OC)c(OC)ccc24)CCc2cc4c(cc2-3)OCO4)cc(OC)c1OC(=O)c1ccccc1` [Compound 16, 4-[2-(Berberin-13-yl)acetyl]-2,6-dimethoxyphenyl Benzoate], the MIC with S. aureus (setting [9]) is 6.25 to 12.5 µM; in the data set on S. aureus (setting [10]) it was 6.25 µM; in the data set on M. smegmatis it was 50 µM; against B. cereus, 12.5 µM; in data set [1] it was 12.5 µM; with C. perfringens it was 25 µM. For the same compound, the MIC in data set [2] was 50 µM; with L. lactis, 6.25 to 12.5 µM; in data set [3], 12.5 µM; against A. baumannii, greater than 100 µM; in the data set with C. farmer, greater than 100 µM; against H. pylori, 6.25 µM. The MIC against S. flexneri and against V. diabolicus was greater than 100 µM throughout. Moreover, the IC50 in data set [4], in data set [5] and in data set [6] was greater than 50 µM throughout. The “therapeutic index Caco2” value in data set [5] turned out to be 10.36. Further, the “DNA fragmentation, B. subtilis DNA” value in [7] was “did not caused DNA fragmentation”. In data set [8], the “DNA fragmentation, S. aureus DNA” value is on record as “failed at causing the fragmentation of DNA”.
